Test results from ChEMBL document CHEMBL1124182, “Design, synthesis, and properties of (4S)-7-(4-amino-2-substituted-pyrrolidin-1-yl)quinolone-3-carboxylic acids” (J Med Chem, 1988).
Values after ≈ are worked out from the molar mass of the structure shown.

Columns and labels:
[1] = tested on: Acinetobacter; test: In vitro Minimum inhibitory concentration against Acinetobacter CMX 669; assay type: functional; settings: Acinetobacter; read-out: MIC
[2] = tested on: Escherichia coli; test: In vitro Minimum inhibitory concentration against Escherichia coli Juhl; assay type: functional
[3] = tested on: Klebsiella pneumoniae; test: In vitro Minimum inhibitory concentration against Klebsiella pneumoniae 8045; assay type: functional
[4] = tested on: Pseudomonas aeruginosa; test: In vitro Minimum inhibitory concentration against Pseudomonas aeruginosa 5007; assay type: functional
[5] = tested on: Pseudomonas aeruginosa; test: In vitro Minimum inhibitory concentration against Pseudomonas aeruginosa K799/WT; assay type: functional
[6] = tested on: Staphylococcus epidermidis; test: In vitro Minimum inhibitory concentration against Staphylococcus epidermidis 3519; assay type: functional
[7] = tested on: Streptococcus agalactiae; test: In vitro Minimum inhibitory concentration against Streptococcus agalactiae CMX 508; assay type: functional
[8] = tested on: Staphylococcus aureus; test: In vitro Minimum inhibitory concentration against Staphylococcus aureus 45; assay type: functional
[9] = tested on: Staphylococcus aureus; test: In vitro Minimum inhibitory concentration against Staphylococcus aureus A5177; assay type: functional
[10] = tested on: Staphylococcus aureus; test: In vitro Minimum inhibitory concentration against Staphylococcus aureus ATCC 6538P; assay type: functional
[11] = tested on: Streptococcus equinus; test: In vitro Minimum inhibitory concentration against Streptococcus bovis A5169; assay type: functional
[12] = tested on: Enterococcus faecium; test: In vitro Minimum inhibitory concentration against Streptococcus faecium ATCC 8043; assay type: functional
[13] = tested on: Streptococcus pyogenes; test: In vitro Minimum inhibitory concentration against Streptococcus pyogenes 930; assay type: functional
[14] = tested on: Staphylococcus aureus; test: In vitro Minimum inhibitory concentration against Staphylococcus aureus CMX 686B; assay type: functional
[15] = tested on: Escherichia coli; test: Supercoiling inhibition assay using purified DNA gyrase isolated from Escherichia coli H560; assay type: functional; settings: read-out: I50
[16] = Partition coefficient (logP); assay type: physicochemical; settings: octanol/water
[17] = (§1) Blood level was evaluated by a disk agar diffusion assay at 3.0 hh when administered at a peroral dose of 25 mg/kg; assay type: ADME, organism-based; design: dose 25 mg/kg, route oral; settings: mouse, po, read-out: Blood level
[18] = tested on: Mus musculus; test: In vivo efficacy against Escherichia coli Juhl, in mouse protection tests when administered perorally (po); assay type: functional
[19] = tested on: Mus musculus; test: In vivo efficacy against Escherichia coli Juhl, in mouse protection tests when administered subcutaneously (sc); assay type: functional
[20] = tested on: Staphylococcus aureus; test: (§2) In vivo efficacy against Staphylococcus aureus 10649, in mouse protection tests when administered perorally (po); assay type: functional
[21] = tested on: Staphylococcus aureus; test: (§3) In vivo efficacy against Staphylococcus aureus 10649, in mouse protection tests when administered subcutaneously (sc); assay type: functional
[22] = Compound was evaluated for the solubility in Ringer's buffer solution; assay type: ADME; settings: Ringer's buffer solution; read-out: Solubility
[23] = (§4) Blood level was evaluated by a disk agar diffusion assay at 24.0 hr when administered at a peroral dose of 25 mg/kg; assay type: ADME, organism-based; design: dose 25 mg/kg, route oral; settings: mouse, po, read-out: Blood level
[24] = (§5) Blood level was evaluated by a disk agar diffusion assay at 6.0 hr when administered at a peroral dose of 25 mg/kg; assay type: ADME, organism-based; design: dose 25 mg/kg, route oral; settings: mouse, po, read-out: Blood level
[25] = (§6) Blood level was evaluated by a disk agar diffusion assay at 0.5 hr when administered at a peroral dose of 25 mg/kg; assay type: ADME, organism-based; design: dose 25 mg/kg, route oral; settings: mouse, po, read-out: Blood level
[26] = (§7) Blood level was evaluated by a disk agar diffusion assay at 1.0 hr when administered at a peroral dose of 25 mg/kg; assay type: ADME, organism-based; design: dose 25 mg/kg, route oral; settings: mouse, po, read-out: Blood level
[27] = (§8) Blood level was evaluated by a disk agar diffusion assay at 2.0 hr when administered at a peroral dose of 25 mg/kg; assay type: ADME, organism-based; design: dose 25 mg/kg, route oral; settings: mouse, po, read-out: Blood level
[28] = tested on: Mus musculus; test: as §1; assay type: functional; settings: route oral
[29] = tested on: Mus musculus; test: as §5; assay type: functional; settings: route oral
[30] = tested on: Mus musculus; test: as §8; assay type: functional; settings: route oral
[31] = tested on: Mus musculus; test: as §6; assay type: functional; settings: route oral
[32] = tested on: Mus musculus; test: as §7; assay type: functional; settings: route oral
[33] = tested on: Mus musculus; test: as §4; assay type: functional; settings: route oral
[34] = tested on: Mus musculus; test: as §2; assay type: functional
[35] = tested on: Mus musculus; test: as §3; assay type: functional

Compound | MIC [1] [mg/L] | MIC [2] [mg/L] | MIC [3] [mg/L] | MIC [4] [mg/L] | MIC [5] [mg/L] | MIC [6] [mg/L] | MIC [7] [mg/L] | MIC [8] [mg/L] | MIC [9] [mg/L] | MIC [10] [mg/L] | MIC [11] [mg/L] | MIC [12] [mg/L] | MIC [13] [mg/L] | MIC [14] [mg/L] | IC50 [15] [mg/L] | concentration at 3 h [17] [µg/mL] | ED50 [18] [mg/kg] | ED50 [19] [mg/kg] | ED50 [20] [mg/kg] | ED50 [21] [mg/kg] | further results
O=C(O)c1cn(-c2ccc(F)cc2)c2cc(N3CCC[C@H]3CO)c(F)cc2c1=O | > 100 | 50 (≈ 125 µM) | 25 (≈ 62.4 µM) | > 100 | > 100 | 3.1 (≈ 7.74 µM) | 100 (≈ 250 µM) | 3.1 (≈ 7.74 µM) | 3.1 (≈ 7.74 µM) | 3.1 (≈ 7.74 µM) | 100 (≈ 250 µM) | > 100 | 50 (≈ 125 µM) | 3.1 (≈ 7.74 µM) |  |  |  |  |  |  | 
O=C(O)c1cn(-c2ccc(F)cc2F)c2cc(N3C[C@@H]4C[C@H]3CN4)c(F)cc2c1=O | 0.39 (≈ 0.939 µM) | 0.05 (≈ 0.12 µM) | 0.05 (≈ 0.12 µM) | 1.56 (≈ 3.76 µM) | 0.39 (≈ 0.939 µM) | 0.39 (≈ 0.939 µM) | 0.78 (≈ 1.88 µM) | 0.78 (≈ 1.88 µM) | 0.39 (≈ 0.939 µM) | 0.1 (≈ 0.241 µM) | 1.56 (≈ 3.76 µM) | 0.39 (≈ 0.939 µM) | 0.78 (≈ 1.88 µM) | 0.2 (≈ 0.481 µM) |  |  |  |  |  |  | 
N[C@H]1CC(CF)N(c2nc3c(cc2F)c(=O)c(C(=O)O)cn3-c2ccc(F)cc2F)C1 (stereo partly specified) | 0.39 (≈ 0.894 µM) | 0.1 (≈ 0.229 µM) | 0.1 (≈ 0.229 µM) | 0.78 (≈ 1.79 µM) | 0.78 (≈ 1.79 µM) | 0.2 (≈ 0.458 µM) | 0.39 (≈ 0.894 µM) | 0.1 (≈ 0.229 µM) | 0.1 (≈ 0.229 µM) | 0.05 (≈ 0.115 µM) | 0.78 (≈ 1.79 µM) | 0.2 (≈ 0.458 µM) | 0.2 (≈ 0.458 µM) | 0.05 (≈ 0.115 µM) | 0.75 (≈ 1.72 µM) |  |  |  |  |  | 
C[C@H]1C[C@H](N)CN1c1cc2c(cc1F)c(=O)c(C(=O)O)cn2-c1ccc(F)cc1F | 0.1 (≈ 0.24 µM) | 0.05 (≈ 0.12 µM) | 0.02 (≈ 0.0479 µM) | 3.1 (≈ 7.43 µM) | 0.39 (≈ 0.934 µM) | 0.2 (≈ 0.479 µM) | 0.1 (≈ 0.24 µM) | 0.1 (≈ 0.24 µM) | 0.2 (≈ 0.479 µM) | 0.02 (≈ 0.0479 µM) | 0.2 (≈ 0.479 µM) | 0.1 (≈ 0.24 µM) | 0.2 (≈ 0.479 µM) | 0.05 (≈ 0.12 µM) | 0.9 (≈ 2.16 µM) | 1.1 | 3.6 | 0.9 | 3.3 | < 0.5 | logP [16]: 0.085; solubility [22]: 0.053 mg/mL (≈ 127 µM)
C[C@H]1C[C@H](N)CN1c1nc2c(cc1F)c(=O)c(C(=O)O)cn2-c1ccc(F)cc1 | 0.1 (≈ 0.25 µM) | 0.05 (≈ 0.125 µM) | 0.05 (≈ 0.125 µM) | 0.39 (≈ 0.974 µM) | 0.39 (≈ 0.974 µM) | 0.1 (≈ 0.25 µM) | 0.78 (≈ 1.95 µM) | 0.1 (≈ 0.25 µM) | 0.1 (≈ 0.25 µM) | 0.05 (≈ 0.125 µM) | 0.78 (≈ 1.95 µM) | 0.39 (≈ 0.974 µM) | 0.39 (≈ 0.974 µM) | 0.05 (≈ 0.125 µM) |  | 0.8 |  |  | 5.7 | 2 | concentration at 24 h [23]: 0.1 µg/mL; concentration at 6 h [24]: 0.3 µg/mL; concentration at 0.5 h [25]: 2.4 µg/mL; concentration at 1 h [26]: 1.9 µg/mL; concentration at 2 h [27]: 1.5 µg/mL
N[C@H]1CC(CO)N(c2cc3c(cc2F)c(=O)c(C(=O)O)cn3-c2ccc(F)cc2F)C1 (stereo partly specified) | 6.2 (≈ 14.3 µM) | 0.78 (≈ 1.8 µM) | 0.78 (≈ 1.8 µM) | 0.78 (≈ 1.8 µM) | 0.39 (≈ 0.9 µM) | 0.78 (≈ 1.8 µM) | 0.78 (≈ 1.8 µM) | 1.56 (≈ 3.6 µM) | 0.78 (≈ 1.8 µM) | 0.1 (≈ 0.231 µM) | 1.56 (≈ 3.6 µM) | 0.78 (≈ 1.8 µM) | 0.39 (≈ 0.9 µM) | 0.39 (≈ 0.9 µM) | 0.4 (≈ 0.923 µM) |  | > 16 | 5.9 | 5.4 | 0.7 | logP [16]: -0.98; solubility [22]: 0.06 mg/mL (≈ 138 µM)
O=C(O)c1cn(C2CC2)c2cc(N3CCNCC3)c(F)cc2c1=O [CIPROFLOXACIN] | 0.39 (≈ 1.18 µM) |  | 0.02 (≈ 0.0604 µM) | 0.39 (≈ 1.18 µM) | 0.2 (≈ 0.604 µM) | 0.78 (≈ 2.35 µM) | 0.78 (≈ 2.35 µM) | 0.78 (≈ 2.35 µM) | 0.39 (≈ 1.18 µM) | 0.2 (≈ 0.604 µM) | 1.56 (≈ 4.71 µM) | 0.39 (≈ 1.18 µM) |  | 0.39 (≈ 1.18 µM) | 0.9 (≈ 2.72 µM) |  | 1.9 | 0.2 | 15.5 | 1.6 | Blood level [28]: 0.1 µg/mL; Blood level [29]: 0 µg/mL; Blood level [30]: 0.3 µg/mL; Blood level [31]: 1.3 µg/mL; Blood level [32]: 0.8 µg/mL; Blood level [33]: 0 µg/mL
C[C@H]1C[C@H](N)CN1c1cc2c(cc1F)c(=O)c(C(=O)O)cn2-c1ccc(F)cc1 | 0.1 (≈ 0.25 µM) | 0.02 (≈ 0.0501 µM) | 0.01 (≈ 0.025 µM) | 3.1 (≈ 7.76 µM) | 0.78 (≈ 1.95 µM) | 0.05 (≈ 0.125 µM) | 0.2 (≈ 0.501 µM) | 0.05 (≈ 0.125 µM) | 0.05 (≈ 0.125 µM) | 0.05 (≈ 0.125 µM) | 0.2 (≈ 0.501 µM) | 0.2 (≈ 0.501 µM) | 0.2 (≈ 0.501 µM) | 0.05 (≈ 0.125 µM) |  | 0.2 |  |  |  |  | concentration at 0.5 h [25]: 1 µg/mL; concentration at 1 h [26]: 0.8 µg/mL; concentration at 2 h [27]: 0.4 µg/mL; ED50 [34]: 4.4 mg/kg; ED50 [35]: 0.8 mg/kg
